SMILES strings stand for the structures. Values after ≈ are worked out from the molar mass of the structure shown.

The subject of the experiment is P388. In words: Cytotoxicity against mouse P388 cells after 3 days by MTT assay. Type of experiment: functional, cell-based. As to conditions: P388, 72 h.
With `CC1=CC(=O)O[C@@H]1[C@@]1(C)C[C@H]2OC(=O)[C@H](O)[C@H]3[C@@H](C)[C@@H](O)[C@]4(O)OC[C@@]32[C@@H]14` [POLYANDROL], inhibition was half-maximal at 17 µg/mL (≈ 44.7 µM) (IC50). For the molecule `CC1=CC(=O)[C@@H](O)[C@]2(C)[C@H]3[C@@H](O)[C@H](O)[C@@]4(C)OC[C@@]35[C@@H](C[C@@H]12)OC(=O)[C@H](O)[C@@H]45` [YADANZIOLIDE C], the IC50 – broadly, the concentration that inhibits the measured activity by half – was found to be 2.4 µg/mL (≈ 6.08 µM). This IC50 lies about 7.1-fold lower than the previous one. `CC(=O)O[C@H]1C[C@@](C)([C@H]2OC(=O)C[C@@H]2CO)C2=CC(=O)O[C@@H]3C[C@@H]4[C@](C)(C(=O)C=C[C@@]4(C)O)[C@@H]1[C@]23C` [GUANEPOLIDE] showed an IC50 of 70 µg/mL (≈ 139 µM). In turn, `CC1=CC(=O)[C@@H](O)[C@]2(C)[C@H]3[C@]4(O)OC[C@]35[C@H]([C@@H](C)[C@H]4O)[C@@H](O)C(=O)O[C@@H]5C[C@@H]12` [GLAUCARUBOLONE] had an IC50 of 1.4 µg/mL (≈ 3.55 µM). `CC1=C[C@H](O)[C@@H](O)[C@]2(C)[C@H]3[C@@]4(O)OC[C@@]35[C@@H](C[C@@H]12)OC(=O)C[C@H]5[C@@H](C)[C@H]4O` [CHAPARRIN]: the IC50 is more than 100 µg/mL. Take `CC1=CC(=O)O[C@H]1[C@@]1(C)C[C@H]2OC(=O)C[C@H]3[C@@H](C)[C@@H](O)[C@]4(O)OC[C@]23[C@@H]14` [CEDRONOLACTONE B]: the IC50 was 6.5 µg/mL (≈ 17.8 µM). Molecule `CC1=C[C@H](O)[C@@H](O)[C@]2(C)[C@H]3[C@@]4(O)OC[C@]35[C@H]([C@@H](C)[C@H]4O)[C@@H](O)C(=O)O[C@@H]5C[C@@H]12` [GLAUCARUBOL] returned an IC50 of more than 100 µg/mL. The molecule `CC1=CC(=O)O[C@@H]1[C@@]1(C)C[C@H]2OC(=O)C[C@H]3[C@@H](C)[C@@H](O)[C@]4(O)OC[C@]23[C@@H]14` [AILANQUASSIN A] had an IC50 of 39 µg/mL (≈ 107 µM).

Turning to `CC1=CC(=O)[C@@H](O)[C@]2(C)[C@H]3[C@@H](O)[C@H](O)[C@@]4(C)OC[C@@]35[C@@H](C[C@@H]12)OC(=O)[C@H](OC(=O)CC(C)C)[C@@H]45` [CEDRONOLACTONE A], the IC50 turned out to be 0.0074 µg/mL (≈ 0.0155 µM). Against the preceding molecule, the IC50 is about 5300-fold lower. For `CC[C@@H](C)C(=O)O[C@H]1C(=O)O[C@@H]2C[C@H]3C(C)=CC(=O)[C@@H](O)[C@]3(C)[C@H]3[C@@H](O)[C@H](O)[C@]4(C)OC[C@]32[C@@H]14` [SIMALIKALACTONE D], the IC50 turned out to be 0.0055 µg/mL (≈ 0.0115 µM). Molecule `CC1=CC(=O)O[C@H]1[C@@]1(C)C[C@H]2OC(=O)[C@H](O)[C@H]3[C@@H](C)[C@@H](O)[C@]4(O)OC[C@@]32[C@@H]14` [CEDRONOLACTONE C] showed an IC50 of 49 µg/mL (≈ 129 µM). Take `CC1=CC(=O)[C@@H](O)[C@]2(C)[C@H]3[C@@]4(O)OC[C@@]35[C@@H](C[C@@H]12)OC(=O)C[C@H]5[C@@H](C)[C@H]4O` [CHAPARRINONE]: the IC50 is 0.92 µg/mL (≈ 2.43 µM).
